Measurements as given in patent publication EP0326329B1, “Quinazoline derivatives useful as insecticides” (Dow AgroSciences LLC, priority 1988, dated 1989).
Read-outs that look alike come from different tables or passages of the source.

What was measured:
Format in all cases: in vivo
[1] = test system: Pyricularia oryzae (rice blast); conditions: disease control rating, foliar spray, host rice; 400 ppm (+++ at 100 ppm)
[2] = test system: Puccinia recondita tritici (leaf rust); assay: Greenhouse Test 1, foliar spray fungicide screen (LEAF RUST), host wheat; conditions: disease control rating, 400 ppm (+++ at 100 ppm)
[3] = test system: Erysiphe graminis tritici (powdery mildew); assay: Greenhouse Test 1, foliar spray fungicide screen (POWD MDEW), host wheat; conditions: disease control rating, 400 ppm (+++ at 100 ppm)
[4] = test system: Pseudoperonospora cubensis (downy mildew); assay: Greenhouse Test 1, foliar spray fungicide screen (DOWN MDEW), host squash; conditions: disease control rating, 400 ppm (+++ at 100 ppm)
[5] = test system: southern armyworm (Spodopetra eridania Cramer); assay: Mite/insect screen, sprayed squash leaves (SAW); conditions: Spodoptera eridania, percent mortality, read-out: SAW RESULTS %; for mortality at 200 ppm: spray rate 200 ppm
In short: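 Percent mortality and phytotoxicity are the read-outs, assessed after standard exposure periods. Test solutions, made in 50:50 acetone/alcohol with two sulfonate/nonionic emulsifier blends and diluted in water, are sprayed to runoff on both leaf surfaces, which then dry for one hour.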

[6] = test system: Botrytis cinerea (gray mold); assay: Greenhouse Test 1, foliar spray fungicide screen (GRAY MOLD), host grape berries; conditions: disease control rating, 400 ppm (+++ at 100 ppm)
[7] = test system: Twospotted spider mites (Tetranychus urticae Koch); assay: Mite/insect screen, sprayed squash cotyledons (SM); conditions: Tetranychus urticae, percent mortality, read-out: SM RESULTS %; for mortality at 200 ppm: spray rate 200 ppm
In short: (§1)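 Compounds were dissolved in 50:50 acetone/alcohol containing sulfonate/nonionic emulsifier blends (23 g and 13 g per liter) and diluted with water to test concentrations. Leaves were sprayed on both surfaces to runoff and dried for one hour. Percent mortality and phytotoxicity were scored after standard exposure periods.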

[8] = test system: Southern corn rootworm (Diabrotica undecimpuctata howardi Barber); assay: Mite/insect screen, soil treatment (CRW); conditions: Diabrotica, percent mortality, soil treatment, read-out: CRW RESULTS %; for mortality at 12 ppm: CRW rate 12.00 ppm
In short: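 Compounds dissolved in acetone/alcohol (50:50) with Toximul R/S emulsifiers, diluted with water. Soil (15 g, with presoaked corn seed) treated with 1 mL test solution, dried 6–12 h, then five 2–3 instar larvae added; held at 23°C. Percent mortality and phytotoxicity scored after standard exposure periods.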

[9] = test system: melon aphids (Aphis gossypii Glover); assay: Mite/insect screen, sprayed squash cotyledons (MA); conditions: Aphis gossypii, percent mortality, read-out: MA RESULTS %; for mortality at 200 ppm: spray rate 200 ppm
In short: as §1

Compound	RICE BLAST [1]	LEAF RUST [2]	POWD MDEW [3]	DOWN MDEW [4]	mortality at 200 ppm [5]	mortality at 400 ppm ([5]; spray rate 400 ppm)	GRAY MOLD [6]	mortality at 200 ppm [7]	mortality at 400 ppm ([7]; spray rate 400 ppm)	mortality at 12 ppm [8]	mortality at 24 ppm ([8]; CRW rate 24.00 ppm)	mortality at 200 ppm [9]	mortality at 400 ppm ([9]; spray rate 400 ppm)	mortality at 400 ppm ([5]; Southern armyworm, sprayed squash leaves, RATE 400 PPM)	mortality at 400 ppm ([7]; twospotted spider mites, sprayed squash cotyledons, RATE 400 PPM)	mortality at 24 ppm ([8]; corn rootworm, CRW RATE 24.00 PPM)	mortality at 400 ppm ([9]; melon aphids, sprayed squash cotyledons, RATE 400 PPM)
CC(COc1ncnc2ccccc12)c1ccc(-c2ccccc2)cc1 (stereo not shown) [Example 187, 4-[2-(1,1'-biphenyl)-4-ylpropoxy]quinazoline]	+++ (+++ = 90-100% control at 100 ppm)	+ (+ = 20-89% control at 400 ppm)	- (- = 0-19% control at 400 ppm)	+ (+ = 20-89% control at 400 ppm)	0%	0%	- (- = 0-19% control at 400 ppm)	0%	0%	0%	0%	0%	0%	–	–	–	–
Fc1cccc2c(OCCc3ccc4ccccc4c3)ncnc12 [Example 66, 8-fluoro-4-[2-(2-naphthyl)ethoxy]quinazoline]	+++ (+++ = 90-100% control at 100 ppm)	+++ (+++ = 90-100% control at 100 ppm)	+++ (+++ = 90-100% control at 100 ppm)	+++ (+++ = 90-100% control at 100 ppm)	–	0%	- (- = 0-19% control at 400 ppm)	–	0%	–	0%	–	0%	–	–	–	–
CC(C)Cc1ccc(C(C)COc2ncnc3c(F)cccc23)cc1 (stereo not shown) [Example 113, 8-fluoro-4-[2-[4-(2-methylpropyl)phenyl]propoxy]quinazoline]	+++ (+++ = 90-100% control at 100 ppm)	+++ (+++ = 90-100% control at 100 ppm)	+ (+ = 20-89% control at 400 ppm)	+++ (+++ = 90-100% control at 100 ppm)	0%	40%	- (- = 0-19% control at 400 ppm)	100%	0%	0%	0%	100%	0%	–	–	–	–
Fc1ccccc1Oc1ccc(CCOc2ncnc3c(F)cccc23)cc1 [Example 198, 8-fluoro-4-[2-[4-(2-fluorophenoxy)phenyl]ethoxy]quinazoline]	+++ (+++ = 90-100% control at 100 ppm)	+++ (+++ = 90-100% control at 100 ppm)	+++ (+++ = 90-100% control at 100 ppm)	+++ (+++ = 90-100% control at 100 ppm)	100%	–	- (- = 0-19% control at 400 ppm)	100%	–	0%	–	100%	–	100%	0%	0%	0%
CC(C)(C)c1ccc(CCOc2ncnc3c(F)cccc23)cc1 [Example 94, 8-fluoro-4-[2-[4-(t-butyl)phenyl]ethoxy]quinazoline]	+++ (+++ = 90-100% control at 100 ppm)	+++ (+++ = 90-100% control at 100 ppm)	+++ (+++ = 90-100% control at 100 ppm)	+++ (+++ = 90-100% control at 100 ppm)	100%	100%	- (- = 0-19% control at 400 ppm)	100%	0%	0%	0%	80%	0%	–	–	–	–
Fc1cccc2c(NCCc3ccc(-c4ccccc4)cc3)ncnc12 [Example 102, 8-fluoro-N-[2-(1,1'-biphenyl)-4-ylethyl]-4-quinazolinamine]	+++ (+++ = 90-100% control at 100 ppm)	+++ (+++ = 90-100% control at 100 ppm)	++ (++ = 90-100% control at 400 ppm)	++ (++ = 90-100% control at 400 ppm)	80%	100%	++ (++ = 90-100% control at 400 ppm)	80%	90%	0%	0%	80%	90%	–	–	–	–
Oc1ccc(CCOc2ncnc3ccccc23)cc1 [Example 115, 4-[2-(4-hydroxyphenyl)ethoxy]quinazoline]	+ (+ = 20-89% control at 400 ppm)	+++ (+++ = 90-100% control at 100 ppm)	+ (+ = 20-89% control at 400 ppm)	+ (+ = 20-89% control at 400 ppm)	0%	0%	- (- = 0-19% control at 400 ppm)	0%	0%	0%	0%	0%	0%	–	–	–	–
CC(C)(C)c1ccc(CCNc2ncnc3c(F)cccc23)cc1 [Example 100, 8-fluoro-N-[2-[4-(t-butyl)phenyl]ethyl]-4-quinazolinamine]	+++ (+++ = 90-100% control at 100 ppm)	+++ (+++ = 90-100% control at 100 ppm)	+++ (+++ = 90-100% control at 100 ppm)	+++ (+++ = 90-100% control at 100 ppm)	80%	0%	- (- = 0-19% control at 400 ppm)	80%	0%	0%	100%	80%	0%	–	–	–	–
Cc1ccccc1CCOc1ncnc2ccccc12 [Example 103, 4-[2-(2-methylphenyl)ethoxy]quinazoline]	+ (+ = 20-89% control at 400 ppm)	+++ (+++ = 90-100% control at 100 ppm)	+ (+ = 20-89% control at 400 ppm)	+ (+ = 20-89% control at 400 ppm)	–	0%	- (- = 0-19% control at 400 ppm)	–	0%	–	0%	–	0%	–	–	–	–
CC(C)c1ccc(CCCCOc2ncnc3ccccc23)cc1 [Example 168, 4-[4-[4-(i-propyl)phenyl]butoxy]quinazoline]	+++ (+++ = 90-100% control at 100 ppm)	+ (+ = 20-89% control at 400 ppm)	+++ (+++ = 90-100% control at 100 ppm)	++ (++ = 90-100% control at 400 ppm)	0%	0%	- (- = 0-19% control at 400 ppm)	0%	0%	0%	0%	0%	80%	–	–	–	–
CC(COc1ncnc2ccccc12)c1ccccc1 (stereo not shown) [Example 60, 4-(2-phenylpropoxy)quinazoline]	+++ (+++ = 90-100% control at 100 ppm)	+ (+ = 20-89% control at 400 ppm)	+ (+ = 20-89% control at 400 ppm)	++ (++ = 90-100% control at 400 ppm)	–	0%	- (- = 0-19% control at 400 ppm)	–	100%	–	0%	–	100%	–	–	–	–
COc1ccc(CCOc2ncnc3c(F)cccc23)cc1OC [Example 112, 8-fluoro-4-[2-(3,4-dimethoxyphenyl)ethoxy]quinazoline]	+++ (+++ = 90-100% control at 100 ppm)	+++ (+++ = 90-100% control at 100 ppm)	+ (+ = 20-89% control at 400 ppm)	+++ (+++ = 90-100% control at 100 ppm)	0%	0%	- (- = 0-19% control at 400 ppm)	0%	0%	0%	0%	80%	0%	–	–	–	–
CC(C)Cc1ccc(C(C)COc2ncnc3ccccc23)cc1 (stereo not shown) [Example 167, 4-[2-[4-(2-methylpropyl)phenyl]propoxy]quinazoline]	+++ (+++ = 90-100% control at 100 ppm)	+ (+ = 20-89% control at 400 ppm)	+ (+ = 20-89% control at 400 ppm)	- (- = 0-19% control at 400 ppm)	0%	0%	- (- = 0-19% control at 400 ppm)	90%	80%	0%	0%	90%	80%	–	–	–	–
